Like-named read-outs stand apart in the source and are kept apart here.
What was measured:
[1] = tested on: Colo205 human colon adenocarcinoma cell line (doxorubicin-sensitive); assay: MTT assay, cytotoxicity at pH 6 and 7; format: cell-based; conditions: Colo205, 72 h incubation, read-out: IC50
Method: (§1) All cell culture reagents were obtained from Sigma-Aldrich (Merck KGaA, Darmstadt, Germany) and plasticware from Sarstedt (Nümbrecht, Germany). Human colonic adenocarcinoma cell lines Colo205 (catalog number: ATCC-CCL-222) and its doxorubicin-resistant counterpart Colo320 (catalog number: ATCC-CCL-220.1) were purchased from LGC Promochem (Teddington, UK). The cells were cultured in RPMI 1640 medium supplemented with 10% heat-inactivated fetal bovine serum, 2 mM L-glutamine, 1 mM sodium pyruvate, and 100 mM HEPES buffer, adjusting the pH to 6.0 or 7.0. The cells were incubated at 37 °C in a 5% CO2–95% air atmosphere. The semiadherent human colon cancer cells were detached with Trypsin-Versene solution for 5 min at 37 °C.
(§2) The solutions were freshly prepared prior to measurements (see Section 2.1). […] Firstly, these samples were diluted in complete culture medium; then, two-fold serial dilutions of the compounds were prepared in 100 μL of RPMI 1640, horizontally. The semiadherent colonic adenocarcinoma cells were treated with Trypsin-Versene solution. They were adjusted to a density of 1 × 10^4 cells in 100 μL of RPMI 1640 medium and were added to each well, with the exception of the medium control wells. The final volume of the wells containing compounds and cells was 200 μL. Samples were triplicated. The pH of the medium was adjusted to 6.0 or 7.0.
(§3) The culture plates were incubated at 37 °C for 72 h; at the end of the incubation period, 20 μL of MTT solution (from a stock solution of 5 mg/mL) was added to each well. After incubation at 37 °C for 4 h, 100 μL of SDS solution (10% in 0.01 M HCI) was added to each well, and the plates were further incubated at 37 °C overnight. Cell growth was determined by measuring the optical density (OD) at 540/630 nm with a Multiscan EX ELISA reader (Thermo Labsystems, Cheshire, WA, USA). […] Curves were fitted using GraphPad Prism software (2022, version 9.4.1, Graphpad Software (LLC) d.b.a Dotmatics, San Diego, CA, USA) using the sigmoidal dose–response model (comparing variable and fixed slopes).
(§4) The pH-dependent solution speciation of the selected mixed-ligand complexes is an important feature in the hypothesized mechanism of action, and the modeling of acidosis is necessary for the in vitro anticancer assays. In order to find out the cytotoxicity difference based on the pH of the medium, cytotoxic activity was determined at pH 6 and 7 by MTT assay in two human colon adenocarcinoma cell lines (doxorubicin-sensitive Colo205 and doxorubicin-resistant Colo320). […] The mixed-ligand complexes were prepared prior to the measurements, as was already described in Section 2.1. With this method, the effect of the different counter ions could be avoided, and a more adequate comparison of the mixed-ligand complexes could be conducted.

[2] = tested on: Colo320 human colon adenocarcinoma cell line (doxorubicin-resistant); assay: MTT assay, cytotoxicity at pH 6 and 7; format: cell-based; conditions: Colo320, 72 h incubation, read-out: IC50
Method: as §1, §2, §3, §4

[3] = Formation constants of mixed-ligand half-sandwich complexes (UV-vis and 1H NMR); format: physicochemical; conditions: under the applied conditions, 1H NMR, limit of detection 5%
Method: NMR spectroscopic studies were carried out on a Bruker Avance III HD Ascend 500 Plus instrument. For the aqueous samples, ^1H NMR spectra were recorded with the WATERGATE water suppression pulse scheme using DSS internal standard. The highest peak of DSS was 0.00 ppm. The measurement was very similar to the UV-vis measurement since the complex–to–monodentate ligand ratio was also between 0–10 equivalents; the spectra were recorded after the given waiting time. […] This technique was useful in those cases where no spectral change was visible during the UV-vis titrations.
In both measurement methods, the formation constant (K) was obtained using the computer program PSEQUAD [38].
It is worthwhile to mention that the liberation of the bidentate ligand was not detected even at higher monodentate ligand excess (~10), which means that the disruption of the bond between the bidentate ligand and the metal center is not feasible under these conditions. The calculated formation constants are compared in Figure 5 and are collected in Table S2. The formation of the mixed-ligand complexes was not detected in three cases under the applied conditions, namely [Ru(p-cym)(en)(mim)]^2+, [Ru(p-cym)(phen)(mim)]^2+, and [Ru(p-cym)(en)(Py)]^2+. For these complexes, only a higher limit of the formation constant could be given, assuming that a maximum of 5% of the complex would form (limit of detection) under the conditions used for ^1H NMR spectroscopy. Based on Figure 5, the following trends are observed in the formation constants: (i) [RhCp*(en)(H2O)]^2+ and [RhCp*(phen)(H2O)]^2+ have a stronger monodentate ligand-binding ability than the Ru(p-cym) analogs; (ii) the formation constants of the [Ru(p-cym)(8HQH-1)(N)]^+ complexes are similar or somewhat higher than those of the RhCp* analogs; (iii) a stability trend for the monodentate ligand: mim > bim > Py (iv) and the bidentate ligand: 8HQH-1 > phen ≥ en can be seen.

[4] = tested on: E. coli 32313 (resistant); assay: Antibacterial assay, MIC in 96-well plates at different pH; format: cell-based; conditions: E. coli resistant, after one day, read-out: MIC
Description: (§5) The antibacterial effect was studied in two Gram-positive and in two Gram-negative strains. The Gram-positive S. aureus ATCC 25923 (ATCC, Manassas, VA, USA) is a methicillin-susceptible reference bacterial strain, while S. aureus 272123 is a clinical isolate and resistant to methicillin and ofloxacin (MRSA), which was given by Prof. Dr. Leonard Amaral (Institute of Hygiene and Tropical Medicine, Lisbon, Portugal). The Gram-negative strains were E. coli ATCC 25922 (ATCC, Manassas, VA, USA), which is sensitive to antibiotics, and E. coli 32313 (provided by the Institute of Clinical Microbiology, University of Szeged, Hungary), which is resistant to different antibiotics (trimethoprim/sulfamethoxazole, gentamicin, ciprofloxacin, and norfloxacin).
(§6) The minimum inhibitory concentrations (MICs) of the compounds were determined in 96-well plates based on the Clinical and Laboratory Standard Institute guidelines. The compounds were diluted in 100 μL of Mueller Hinton broth. Then, an overnight bacterial culture diluted 10,000 times in 100 μL of medium was added to each well, with the exception of the medium control wells. For each strain and each tested compound, four pH values were set (5, 6, 7, and 8). Each sample was triplicated.

[5] = tested on: E. coli ATCC 25922 (sensitive); assay: as above; format: cell-based; conditions: E. coli sensitive, after one day, read-out: MIC
Description: as §5, §6

[6] = tested on: S. aureus 272123 (MRSA); assay: as above; format: cell-based; conditions: read-out: MIC
Description: as §5, §6

[7] = tested on: S. aureus ATCC 25923 (methicillin-susceptible); assay: as above; format: cell-based; conditions: S. aureus sensitive, after one day, read-out: MIC
Description: as §5, §6

COc1cccc2c1C(=O)c1c(O)c3c(c(O)c1C2=O)C[C@@](O)(C(=O)CO)C[C@@H]3O[C@H]1C[C@H](N)[C@H](O)[C@H](C)O1 [doxorubicin, reference compound]
IC50 ([1]; Homo sapiens, COLO 205, pH 6): 7.6 ± 0.3 µM
IC50 ([1]; Homo sapiens, COLO 205, pH 7): 0.71 ± 0.02 µM
IC50 ([2]; Homo sapiens, COLO 320, pH 6): 0.46 ± 0.02 µM

Cc1ccc(C(C)C)cc1.Cn1ccnc1.NCCN.[Ru+2] [[Ru(p-cym)(en)(mim)]^2+]
formation of the mixed-ligand complex [3]: not detected

CC1=C(C)C(C)C(C)=C1C.Cn1ccnc1.Oc1cccc2cccnc12.[Rh+3] [[RhCp*(8HQH−1)(mim)]^+]
IC50 ([1]; pH 6): 7 ± 0.4 µM
IC50 ([1]; pH 7): 7.2 ± 0.2 µM
IC50 ([2]; pH 6): 6 ± 0.1 µM
IC50 ([2]; pH 7): 6.1 ± 0.2 µM

Cc1c(C)c(C)[c-](C)c1C.Clc1ccc(COC(Cn2ccnc2)c2ccc(Cl)cc2Cl)cc1.[Cl-].[Rh+2][O]c1cccc2cccnc12 (racemic) [[RhCp*(8HQH−1)Cl] +econ]
IC50 ([1]; pH 6, listed as [RhCp*(8HQH−1)(H2O)]^+ with econazole): ~1.8 µM
IC50 ([1]; pH 6): 1.8 ± 0.1 µM
IC50 ([1]; pH 7): 3.3 ± 0.1 µM
IC50 ([2]; pH 6): 4.52 ± 0.04 µM
IC50 ([2]; pH 7): 3 ± 0.1 µM
MIC ([4]; pH 5): 50 µM
MIC ([4]; pH 6): >100 µM
MIC ([4]; pH 7): >100 µM
MIC ([4]; pH 8): 50 µM
MIC ([5]; pH 5): 25 µM
MIC ([5]; pH 6): 25 µM
MIC ([5]; pH 7): 25 µM
MIC ([5]; pH 8): 25 µM
MIC ([6]; pH 5, after one day): 12.5 µM
MIC ([6]; pH 6, after one day): 6.25 µM
MIC ([6]; pH 7, after one day): 3.125 µM
MIC ([6]; pH 8, after one day): 3.125 µM
MIC ([7]; pH 7): 0.39 µM
MIC ([7]; pH 8): 0.39 µM

Source: article PMC9964319, “Half-Sandwich Rhodium Complexes with Releasable N-Donor Monodentate Ligands: Solution Chemical Properties and the Possibility for Acidosis Activation” (Pharmaceutics, 2023)
